The source made the active and inactive calls. The rule behind the calls is not given here.
Tested on: CCRIS mutagenicity, Ames/micronucleus/aberration tests
Experiment: CCRIS mutagenicity studies
[1] = Test System: AMES SALMONELLA TYPHIMURIUM, Strain/Indicator: TA98, Metabolic Activation: NONE, Method: PREINCUBATION
[2] = Test System: AMES SALMONELLA TYPHIMURIUM, Strain/Indicator: TA100, Metabolic Activation: NONE, Method: PREINCUBATION
[3] = Test System: AMES SALMONELLA TYPHIMURIUM, Strain/Indicator: TA100, Metabolic Activation: RAT, LIVER, S-9, AROCLOR 1254, Method: STANDARD PLATE
[4] = Test System: AMES SALMONELLA TYPHIMURIUM, Strain/Indicator: TA98, Metabolic Activation: NONE, Method: STANDARD PLATE
[5] = Test System: AMES SALMONELLA TYPHIMURIUM, Strain/Indicator: TA98, Metabolic Activation: RAT, LIVER, S-9, AROCLOR 1254, Method: STANDARD PLATE

## Cc1cccc([N+](=O)[O-])c1C
[1]
  mutagenic call: inactive; negative
Test System: AMES SALMONELLA TYPHIMURIUM, Strain/Indicator: TA98, Metabolic Activation: RAT, LIVER, S-9, KANECHLOR 500, Method: PREINCUBATION
  mutagenic call: inactive; negative
[2]
  mutagenic call: inactive; negative
Test System: AMES SALMONELLA TYPHIMURIUM, Strain/Indicator: TA100, Metabolic Activation: RAT, LIVER, S-9, KANECHLOR 500, Method: PREINCUBATION
  mutagenic call: inactive; negative

## OCc1ccc2c(CO)c3ccc4ccccc4c3nc2c1
[3]
  mutagenic call: inactive; negative

## [Cl][Pd][Cl]
Test System: AMES SALMONELLA TYPHIMURIUM, Strain/Indicator: TA98, Metabolic Activation: HAMSTER, LIVER, S-9, AROCLOR 1254 (10%), Method: PREINCUBATION
  mutagenic call: inactive; negative
[1]
  mutagenic call: inactive; negative
Test System: AMES SALMONELLA TYPHIMURIUM, Strain/Indicator: TA98, Metabolic Activation: RAT, LIVER, S-9, AROCLOR 1254 (10%), Method: PREINCUBATION
  mutagenic call: inactive; negative
Test System: AMES SALMONELLA TYPHIMURIUM, Strain/Indicator: TA100, Metabolic Activation: HAMSTER, LIVER, S-9, AROCLOR 1254 (10%), Method: PREINCUBATION
  mutagenic call: inactive; negative
[2]
  mutagenic call: inactive; negative
Test System: AMES SALMONELLA TYPHIMURIUM, Strain/Indicator: TA100, Metabolic Activation: RAT, LIVER, S-9, AROCLOR 1254 (10%), Method: PREINCUBATION
  mutagenic call: inactive; negative
Test System: AMES SALMONELLA TYPHIMURIUM, Strain/Indicator: TA1535, Metabolic Activation: HAMSTER, LIVER, S-9, AROCLOR 1254 (10%), Method: PREINCUBATION
  mutagenic call: inactive; negative
Test System: AMES SALMONELLA TYPHIMURIUM, Strain/Indicator: TA1535, Metabolic Activation: NONE, Method: PREINCUBATION
  mutagenic call: inactive; negative
Test System: AMES SALMONELLA TYPHIMURIUM, Strain/Indicator: TA1535, Metabolic Activation: RAT, LIVER, S-9, AROCLOR 1254 (10%), Method: PREINCUBATION
  mutagenic call: inactive; negative
Test System: AMES SALMONELLA TYPHIMURIUM, Strain/Indicator: TA1537, Metabolic Activation: HAMSTER, LIVER, S-9, AROCLOR 1254 (10%), Method: PREINCUBATION
  mutagenic call: inactive; negative
Test System: AMES SALMONELLA TYPHIMURIUM, Strain/Indicator: TA1537, Metabolic Activation: NONE, Method: PREINCUBATION
  mutagenic call: inactive; negative
Test System: AMES SALMONELLA TYPHIMURIUM, Strain/Indicator: TA1537, Metabolic Activation: RAT, LIVER, S-9, AROCLOR 1254 (10%), Method: PREINCUBATION
  mutagenic call: inactive; negative

## COc1ccc(S(=O)(=O)n2ncc(Cl)c(Cl)c2=O)cc1
[4]
  mutagenic call: inactive; negative
[5]
  mutagenic call: inactive; negative
Test System: AMES SALMONELLA TYPHIMURIUM, Strain/Indicator: TA100, Metabolic Activation: NONE, Method: STANDARD PLATE
  mutagenic call: inactive; negative
[3]
  mutagenic call: inactive; negative
Test System: AMES SALMONELLA TYPHIMURIUM, Strain/Indicator: TA1535, Metabolic Activation: NONE, Method: STANDARD PLATE
  mutagenic call: inactive; negative
Test System: AMES SALMONELLA TYPHIMURIUM, Strain/Indicator: TA1535, Metabolic Activation: RAT, LIVER, S-9, AROCLOR 1254, Method: STANDARD PLATE
  mutagenic call: inactive; negative
Test System: AMES SALMONELLA TYPHIMURIUM, Strain/Indicator: TA1537, Metabolic Activation: NONE, Method: STANDARD PLATE
  mutagenic call: inactive; negative
Test System: AMES SALMONELLA TYPHIMURIUM, Strain/Indicator: TA1537, Metabolic Activation: RAT, LIVER, S-9, AROCLOR 1254, Method: STANDARD PLATE
  mutagenic call: inactive; negative

## c1ccc2cc3c(ccc4ccncc43)cc2c1
[4]
  mutagenic call: inactive; negative
[5]
  mutagenic call: active; positive
[3]
  mutagenic call: active; positive

## Nc1cccc2cc3c(nc12)CCCC3
Test System: AMES SALMONELLA TYPHIMURIUM, Strain/Indicator: TA97A, Metabolic Activation: NONE, Method: STANDARD PLATE
  mutagenic call: active; positive
Test System: AMES SALMONELLA TYPHIMURIUM, Strain/Indicator: TA97A, Metabolic Activation: RAT, LIVER, S-9, AROCLOR 1254, Method: STANDARD PLATE
  mutagenic call: active; positive

## CCCCB(CCCC)CCCC
Test System: AMES SALMONELLA TYPHIMURIUM, Strain/Indicator: TA98, Metabolic Activation: HAMSTER, LIVER, S-9, AROCLOR 1254, Method: STANDARD PLATE
  mutagenic call: active; positive
[5]
  mutagenic call: active; positive
Test System: AMES SALMONELLA TYPHIMURIUM, Strain/Indicator: TA100, Metabolic Activation: HAMSTER, LIVER, S-9, AROCLOR 1254, Method: STANDARD PLATE
  mutagenic call: active; positive
Test System: MOUSE LYMPHOMA, Strain/Indicator: L5178Y (TK+/TK-), Metabolic Activation: NONE, Method: SUSPENSION/PLATE
  mutagenic call: inactive; negative. reevaluation of results: negative
Test System: MOUSE LYMPHOMA, Strain/Indicator: L5178Y (TK+/TK-), Metabolic Activation: RAT, LIVER, S-9, AROCLOR 1254, Method: SUSPENSION/PLATE
  mutagenic call: inactive; negative. reevaluation of results: negative

— PubChem BioAssay AID1259407 (Chemical Carcinogenesis Research Information System (CCRIS), 2018)
